Reference: patent US6570010B2, “Inclusion compounds of vanillyl alcohol derivative in cyclodextrin and compositions containing the same” (Takasago International Corporation, priority 2000, dated 2003)

Assay: Solubility in water of 20° C.
Type: physicochemical
Details: wt. %
From the text: In this table, vanillyl-n-butyl ether will be abbreviated as VBE.

CCCCOCc1ccc(O)c(OC)c1 [VBE, vanillyl-n-butyl ether]
Solubility of VBE in terms of concentration: <0.002%
